Results taken from US11345914B2, “Composition for delivering nucleic acid and nucleic acid-containing composition” (TOKYO UNIVERSITY OF PHARMACY AND LIFE SCIENCES, priority 2017, dated 2022).

Test system: CIA (Collagen-Induced Arthritis) Mouse
Assay: In vivo evaluation arthritis treatment effect of CIA mice
Conditions: until 15th day, siRNA (RelA) 20 μg/day tail vein (composition as Example 24, N/P 20), MTX 90 μg intraperitoneal
Protocol: Under ice-cooling, while adding an equal amount of type II collagen solution (2 mg/mL) dropwise to complete Freund's adjuvant (CFA), the mixture was homogenized to prepare an emulsion. Similarly, while adding an equal amount of type II collagen solution (2 mg/mL) dropwise to incomplete Freund's adjuvant (IFA), the mixture was homogenized to prepare an emulsion. The prepared emulsion was confirmed to have formed a w/o type emulsion by maintaining a sphere even when it was dropped on the water surface, and was used in the experiment.
Using 8-weeks old male DBA/1J mice, CIA mice were prepared. In the following, the schedule for preparing CIA mice is shown. 100 μL of the emulsion obtained from type II collagen and CFA prepared at −21′ day was intradermally administered to the tail root portion to carry out induction of the first immunization. 100 μL of the emulsion obtained from type II collagen and […] prepared at 0th day was similarly intradermally administered to carry out additional induction of the immunization. At this time, the intradermal administration was carried out reliably was confirmed by the fact that the administered site was protruded with white. […]
Thickening of the hindlimb ankle joint portion was measured by using a micrometer. […]
Clinical score was calculated as follows. […]

For `CN(Cc1cnc2nc(N)nc(N)c2n1)c1ccc(C(=O)N[C@@H](CCC(=O)O)C(=O)O)cc1` [MTX, methotrexate], the “thickening increasing rate of the hindlimbs” value (FIG. 4) was “thickening of the hindlimbs was admitted” and the clinical score (FIG. 5) was “remarkable increase in the clinical score was admitted”.
